Drawing on patent publication US10604509B2, “Nrf2 regulators” (GlaxoSmithKline Intellectual Property Development Limited, priority 2015, dated 2020), this text covers EC50 for ten compounds.

For orientation: EC50 means the concentration giving half of the maximal effect.

Counter-ions that a name gives are not always drawn.

The first assay concerns NQO1 specific enzyme activity in BEAS-2B cells. Nature of the assay: BEAS-2B NQO1 MTT assay. It counts as cell-based. The settings on record: BEAS-2B cells, 48 hours with compound, MTT readout; read-out: EC50 of NQO1 specific activity induction. The source says:
NAD(P)H:quinone oxidoreductase 1 (NQO1), also called DT diaphorase, is a homodimeric FAD-containing enzyme that catalyzes obligatory NAD(P)H-dependent two-electron reductions of quinones and protects cells against the toxic and neoplastic effects of free radicals and reactive oxygen species arising from one-electron reductions. The transcription of NQO1 is finely regulated by NRF2, and thus NQO1 activity is a good marker for NRF2 activation. On day one, frozen BEAS-2B cells (ATCC) are thawed in a water bath, counted, and re-suspended at a concentration of 250,000 cells/mL. Fifty microliters of cells are plated in 384 well black clear-bottomed plates. Plates are incubated at 37° C., 5% CO2 overnight. On day two, plates are centrifuged and 50 nL of compound or controls are added to the cells. Plates are then incubated at 37° C., 5% CO2 for 48 hours. On day four, medium is aspirated from the plate and crude cell lysates are made by adding 13 uL of 1× Cell Signaling Technologies lysis buffer with 1 Complete, Mini, EDTA-free Protease Inhibitor Tablet (Roche) for each 10 mL of lysis buffer. After lysis plates are incubated for 20 minutes at room temperature. Two microliters of lysate are removed for use in Cell Titer Glo assay (Promega) and MTT cocktail is prepared (Prochaska et. al. 1998) for measurement of NQO1 activity. Fifty microliters of MTT cocktail is added to each well, plate is centrifuged, and analyzed on an Envision plate reader (Perkin Elmer) using Absorbance 570 nm label for 30 minutes. Product formation is measured kinetically and the EC50 of NQO1 specific activity induction is calculated by plotting the change in absorbance (Delta OD/min) versus the log of compound concentration followed by 3-parameter fitting.
On the technique in general: Formazan colour is commonly taken as a measure of viable cells.
Regarding `Cc1ccc(C(CC(=O)O)c2ccc3c(nnn3C)c2C)cc1CN1Cc2ccc(C#N)cc2OC(C)(C)C1` (single isomer, unassigned) [Example 174], the EC50 lay within 10 to 100 nM.

The same assay, now with this note: Homo sapiens, BEAS-2B, 48 h, BEAS-2B cells, 48 hours with compound, MTT readout; read-out: EC50 of NQO1 specific activity induction.
For `CC[C@@H]1CN(Cc2cc(C(c3ccc4c(nnn4C)c3C)C(C)(C)C(=O)O)ccc2C)Cc2c(F)cccc2O1` (stereo partly drawn) [Example 31, 3-(1,4-Dimethyl-1H-benzo[d][1,2,3]triazol-5-yl)-3-(3-(((R)-2-ethyl-6-fluoro-2,3-dihydrobenzo[f][1,4]oxazepin-4(5H)-yl)methyl)-4-methylphenyl)-2,2-dimethylpropanoic Acid, Formic Acid Salt], the EC50 is under 1 nM. `Cc1ccc(C(CC(=O)O)c2ccc3c(nnn3C)c2C)cc1CN(C)Cc1cccc(Br)c1` (stereo not shown) [Example 17, Ammonium 3-(3-(((3-bromobenzyl)(methyl)amino)methyl)-4-methylphenyl)-3-(1,4-dimethyl-1H-benzo[d][1,2,3]triazol-5-yl)propanoate]: the EC50 is 1000 to 10000 nM. `CC[C@@H]1CN(Cc2cc([C@H](c3ccc4c(nnn4C)c3C)C(C)(C)C(=O)O)ccc2C)Cc2cnccc2O1` [Example 204, (R)-3-(1,4-Dimethyl-1H-benzo[d][1,2,3]triazol-5-yl)-3-(3-(((R)-2-ethyl-2,3-dihydropyrido[3,4-f][1,4]oxazepin-4(5H)-yl)methyl)-4-methylphenyl)-2,2-dimethylpropanoic Acid, 0.5 Ethanol]: the EC50 was 100 to 1000 nM. With `CC[C@@H]1CN(Cc2cc([C@H](CC(=O)O)c3ccc4c(nnn4CC)c3Cl)ccc2C)Cc2ccccc2O1` [Example 56, (S)-3-(4-Chloro-1-ethyl-1H-benzo[d][1,2,3]triazol-5-yl)-3-(3-(((R)-2-ethyl-2,3-dihydrobenzo[f][1,4]oxazepin-4(5H)-yl)methyl)-4-methylphenyl)propanoic acid], the EC50 is 10 to 100 nM. On to `CC[C@@H]1CN(Cc2cc(C(CCc3cn(CC)nn3)C(C)(C)C(=O)O)ccc2C)Cc2ncccc2O1` (stereo partly drawn) [Example 216, 5-(1-Ethyl-1H-1,2,3-triazol-4-yl)-3-(3-(((R)-2-ethyl-2,3-dihydropyrido[2,3-f][1,4]oxazepin-4(5H)-yl)methyl)-4-methylphenyl)-2,2-dimethylpentanoic Acid], for which the EC50 fell in the range of 1 to 10 nM.

`Cc1ccc(C(c2ccc3c(nnn3C)c2C)C(C)(C)C(=O)O)cc1CN1CCCc2ccccc2C1` (stereo not shown) [Example 104, 3-(3-((4,5-Dihydro-1H-benzo[c]azepin-2(3H)-yl)methyl)-4-methylphenyl)-3-(1,4-dimethyl-1H-benzo[d][1,2,3]triazol-5-yl)-2,2-dimethylpropanoic acid]: the EC50 was in the range of 1 to 10 nM. As for `CC[C@@H]1CN(Cc2cc([C@@H](c3ccc4c(nnn4CC)c3C)C(C)(C)C(=O)O)ccc2C)Cc2cnccc2O1` [Example 188, (S)-3-(3-(((R)-2-Ethyl-2,3-dihydropyrido[3,4-f][1,4]oxazepin-4(5H)-yl)methyl)-4-methylphenyl)-3-(1-ethyl-4-methyl-1H-benzo[d][1,2,3]triazol-5-yl)-2,2-dimethylpropanoic Acid], the EC50 is under 1 nM. On to `Cc1ccc([C@@H](CC(=O)O)c2ccc3c(nnn3C)c2C)cc1CN1Cc2ncccc2OC(C)(C)C1` [Example 169, (R)-3-(1,4-Dimethyl-1H-benzo[d][1,2,3]triazol-5-yl)-3-(3-((2,2-dimethyl-2,3-dihydropyrido[2,3-f][1,4]oxazepin-4(5H)-yl)methyl)-4-methylphenyl)propanoic acid, 0.5 Formic acid salt], for which the half-maximal effective concentration (EC50) was 10 to 100 nM. Take `CCC1CCN(Cc2nccn2Cc2cc(C(CCc3cn(CC)nn3)C(C)(C)C(=O)O)ccc2Cl)CC1` (stereo not shown) [Example 230, 3-(4-Chloro-3-((2-((4-ethylpiperidin-1-yl)methyl)-1H-imidazol-1-yl)methyl)phenyl)-5-(1-ethyl-1H-1,2,3-triazol-4-yl)-2,2-dimethylpentanoic Acid]: the EC50 was in the range of 1 to 10 nM.
